# Test results: US20260374773A1, “MULTI-CYCLIC IRAK AND FLT3 INHIBITING COMPOUNDS AND USES THEREOF” (CHILDREN'S HOSPITAL MEDICAL CENTER, priority 2022, published 2026)
# Experiments:
# [1] = test system: subjects with myelodysplastic syndrome; settings: after receiving azacitidine; cited from earlier work
# MOLM14 (D835Y) cells = experiment: Combination drug screening with venetoclax, Cell Titer Glo, MOLM14 (D835Y); format: cell-based; parameters: key: relative excess HSA score; more negative = greater synergy; settings: compound 0-0.5 μM, venetoclax 0-20 μM, 10 × 10, 48 h, negative = synergy
# Experimental: (§1) Combination drug therapy has the potential to produce enhanced effects with lower side effects not obtained using either agent alone, or beyond the additive effect of the different concentrations of the two different agents. To determine whether enhanced effects are observed in different drug combinations, combination drug screening was performed as previously described (Mathews-Griner, L. A. et al., Proc. Nat. Acad. Sci., 2014, 111:2349-2354; Lin, G. L. et al., Sci. Trans. Med., 2019, 11: eaaw0064). Briefly, 10 nL of compounds were acoustically dispensed into 1536-well white polystyrene tissue culture-treated plates with an Echo 550 acoustic liquid handler (Labcyte). Cells were then added to compound-containing plates at a density of 500-cells/well in 5 μL of medium. A 10-point custom concentration range was used for all listed drugs in a 10×10 matrix. Plates were incubated for 48 hours at standard incubator conditions covered by a stainless steel gasketed lid to prevent evaporation. 48 hours post compound addition, 3 μL of Cell Titer Glo (Promega) were added to each well and plates were incubated at room temperature for 15 minutes with the stainless-steel lid in place. Luminescence readings were taken using a Viewlux imager (PerkinElmer) with a 2 second exposure time per plate.
# (§2) Each compound was studied in combination with venetoclax at two concentration ranges of compound and venetoclax, respectively (for a total of 4 combination dose-response curves). The dose combinations that yielded the optimal synergy score, measured as excess HSA, which are reported in Tables 23 and 24 for the FLT3 mutant cell line MOLM14 (D835Y) and the FLT3 WT cell line THP1, respectively.
# (§3) Table 23 provides combination outcomes for representative compounds with venetoclax in the Cell Titer Glo assay in MOLM14 (D835Y) cells (a FLT3 mutant cell line) at 48 hours. The table provides relative excess HSA values for compounds of the disclosure used in combination with venetoclax compared to gilteritinib hemifumarate used in combination with venetoclax. A negative excess HSA score illustrates that the drug combination is better than either drug alone, wherein greater synergy is observed at larger negative values of the excess HSA score.
# (§4) Excess HSA is a measure of synergy vs. additivity or antagonism, wherein a negative excess HSA value is indicative of synergy. More information on excess HSA scores can be found in Vlot, Anna H. C. et al., Drug Discovery Today, 2019, 24(12):2286-2298. […] However, different methodologies may yield different numerical scores, and different definitions of what constitutes a deviation from mere additivity vs true drug synergy. The large negative excess HSA values provided in Tables 23 and 24 illustrate that multiple members of this structural class synergize with venetoclax. The degree to which combination therapy has to potential to produce enhanced effects with lower side effects not obtained using either agent alone, or beyond the additive effect of the different concentrations of the two different agents depends on the nature of the drugs used in the combination, and the specific doses/concentrations at which they are ultimately used in the therapeutic regimen. A negative excess HSA score illustrates that the drug combination is better than either drug alone (at the concentrations being studied). […] However, the utility in certain drug combinations vs. others should not be distinguished based on cutoffs between excess HSA scores, because the score itself is only a relative indicator that is completely dependent on experimental design and is not an absolute number. Furthermore, the concept of what constitutes clinically meaningful drug synergy is something that is still being debated, not only between pharmacologists and physicians, but amongst pharmacologists themselves. […]
# THP1 cells = experiment: Combination drug screening with venetoclax, Cell Titer Glo, THP1; format: cell-based; settings: compound 0-20 μM, venetoclax 0-2 μM, 10 × 10, 48 h, negative = synergy
# Experimental: as §1, §2
# as §3, with “24” for “23”, “THP1 (FLT3 wild type)” for “MOLM14 (D835Y)”, “cells” for “cells (a FLT3 mutant cell line)”
# as §4
# Menin-KMT2A (MLL) = settings: pre-clinical studies; cited from earlier work
# AML cell lines = settings: combined with a concentration of an exemplary IRAK inhibitor; cited from earlier work
# E-selectin = settings: with chemotherapy; AML mouse models; cited from earlier work
compound,measurement,setting,value
Nc1ncn([C@@H]2O[C@H](CO)[C@@H](O)[C@H]2O)c(=O)n1 [azacitidine],patients who required blood transfusions and no longer needed them,[1],about two-thirds
"CCc1nc(C(N)=O)c(Nc2ccc(N3CCC(N4CCN(C)CC4)CC3)c(OC)c2)nc1NC1CCOCC1 [Gilteritinib hemifumarate, Gilteritinib, reference compound]",Excess HSA,MOLM14 (D835Y) cells,−1556
same,Excess HSA,THP1 cells,−1626
CNc1nc(NC2CCN(Cc3ccc4c(cc(C#N)n4C[C@H](C)N4CCN(S(C)(=O)=O)CC4)c3C)CC2)c2cc(CC(F)(F)F)sc2n1 [KO-539],pharmacokinetic properties,Menin-KMT2A (MLL),excellent pharmacokinetic properties
same,toxicity profile,Menin-KMT2A (MLL),low toxicity profiles
CC1(C)CCC(CN2CCN(c3ccc(C(=O)NS(=O)(=O)c4ccc(NCC5CCOCC5)c([N+](=O)[O-])c4)c(Oc4cnc5[nH]ccc5c4)c3)CC2)=C(c2ccc(Cl)cc2)C1 [venetoclax],increase of potency of venetoclax,AML cell lines,~ 50 -fold
CC[C@H]1C[C@@H](C(=O)NCCNC(=O)CCOCCOCCOCCOCCOCCOCCOCCOCCOCCOCCOCCOC)C[C@@H](O[C@@H]2O[C@H](CO)[C@H](O)[C@H](O[C@@H](CC3CCCCC3)C(=O)O)[C@H]2NC(C)=O)[C@@H]1O[C@@H]1O[C@@H](C)[C@@H](O)[C@@H](O)[C@@H]1O [Uproleselan],duration of mouse survival over chemotherapy alone,E-selectin,doubling the duration of mouse survival over chemotherapy alone
CCN(C(=O)c1cc(F)ccc1Oc1cncnc1N1CC2(CCN(C[C@H]3CC[C@H](NS(=O)(=O)CC)CC3)CC2)C1)C(C)C [SNDX-5613],pharmacokinetic properties,Menin-KMT2A (MLL),excellent pharmacokinetic properties
same,toxicity profile,Menin-KMT2A (MLL),low toxicity profiles
